Results taken from patent US6727264B1 (Synaptic Pharmaceutical Corporation, priority 2001, dated 2004).

molecular target: rat MCH-1 (Rattus norvegicus, UniProt P97639); experiment: Radioligand binding assay at cloned rat MCH1 receptor ([3H] Compound A); set-up: host or cells: Peak rapid 293 (Peakr293) cells, transient calcium phosphate transfection, membranes; settings: cloned rat MCH1 receptor, membranes from Peakr293 cells, 0.08 nM [3H] Compound A; read-out: Ki (nM) rMCH1
Sequence (P97639 whole entry): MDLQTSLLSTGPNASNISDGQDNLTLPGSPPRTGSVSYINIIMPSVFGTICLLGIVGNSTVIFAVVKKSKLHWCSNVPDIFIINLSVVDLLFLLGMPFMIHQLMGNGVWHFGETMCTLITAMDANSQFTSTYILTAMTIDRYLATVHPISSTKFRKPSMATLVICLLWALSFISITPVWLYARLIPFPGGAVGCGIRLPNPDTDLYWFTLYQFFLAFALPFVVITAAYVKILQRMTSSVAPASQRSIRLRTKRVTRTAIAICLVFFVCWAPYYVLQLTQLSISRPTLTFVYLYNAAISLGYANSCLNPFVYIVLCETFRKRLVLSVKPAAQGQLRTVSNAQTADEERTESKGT

Row | Structure (SMILES) | Ki
1 | Cc1onc(-c2c(Cl)cccc2Cl)c1C(=O)O[C@@H](CCN1CCC(c2cccc(NC(=O)C(C)C)c2)CC1)c1ccccc1 [Example 290, (1S)-3-{4-[3-(ISOBUTYRYLAMINO)PHENYL]-1-PIPERIDINYL}-1-PHENYLPROPYL 3-(2,6-DICHLOROPHENYL)-5-METHYL-4-ISOXAZOLECARBOXYLATE] | 51.9 nM
2 | CC(=O)c1ccccc1OC(CCN1CCC(c2cccc(NC(=O)C(C)C)c2)CC1)c1ccc(F)cc1 (stereo not shown) [Example 175] | 16.2 nM
3 | CC(C)C(=O)Nc1cccc(C2CCN(C[C@H](C)COc3ccccc3Cl)CC2)c1 [Example 361] | 311 nM
4 | CC(C)C(=O)Nc1cccc(C2CCN(CC[C@H](NC(=O)c3ccc(F)c(F)c3)c3ccccc3)CC2)c1 [Example 320] | 10.6 nM
5 | COc1ccccc1OCCCCN1CCC(c2cccc(NC(=O)C(C)C)c2)CC1 [Example 378] | 308 nM
6 | CC(C)C(=O)Nc1cccc(C2CCN(CCCC3OCC(C)(C)CO3)CC2)c1 [Example 374] | 96.8 nM
7 | CC(C)C(=O)Nc1cccc(C2CCN(C[C@H](C)COc3cc(F)c(F)cc3F)CC2)c1 [Example 357] | 115 nM
8 | COc1ccc(C(CCN2CCC(c3cccc(NC(=O)C(C)C)c3)CC2)Oc2cccc(C(C)=O)c2)cc1 (stereo not shown) [Example 179] | 82.3 nM
9 | CC(C)C(=O)Nc1cccc(C2CCN(CCC(Oc3ccccc3)c3ccc(Br)cc3)CC2)c1 (stereo not shown) [Example 151] | 14.2 nM
10 | CC(C)C(=O)Nc1cccc(C2CCN(CCCCCC(O)c3ccccc3)CC2)c1 (stereo not shown) [Example 281] | 7.9 nM
11 | CC(=O)c1cccc(OCCCCCCN2CCC(c3cccc(NC(=O)C4CC4)c3)CC2)c1 [Example 384] | 69 nM
12 | CC(C)C(=O)Nc1cccc(C2CCN(CCC(Oc3ccc(C(F)(F)F)cc3)c3ccc(Br)cc3)CC2)c1 (stereo not shown) [Example 152] | 13.3 nM
13 | Cc1onc(-c2c(F)cccc2Cl)c1C(=O)N[C@@H](CCN1CCC(c2cccc(NC(=O)C(C)C)c2)CC1)c1ccccc1 [Example 313] | 249 nM
14 | CC(C)C(=O)Nc1cccc(C2CCN(Cc3ccc(Oc4ccc(Cl)c(Cl)c4)cc3)CC2)c1 [Example 112] | 6.1 nM
15 | CC(C)C(=O)Nc1cccc(C2CCN(Cc3ccc(N(c4ccccc4)c4ccccc4)cc3)CC2)c1 [Example 114] | 3.6 nM
16 | Cc1onc(-c2c(F)cccc2Cl)c1C(=O)OC(CCCN1CCC(c2cccc(NC(=O)C(C)C)c2)CC1)c1ccccc1 (stereo not shown) [Example 295, 4-{4-[3-(ISOBUTYRYLAMINO)PHENYL]-1-PIPERIDINYL}-1-PHENYLBUTYL 3-(2-CHLORO-6-FLUOROPHENYL)-5-METHYL-4-ISOXAZOLECARBOXYLATE] | 8.7 nM
17 | CC(C)C(=O)Nc1cccc(C2CCN(CCC(Oc3ccc(Cl)cc3)c3ccc(Cl)cc3)CC2)c1 (stereo not shown) [Example 172] | 3 nM
18 | COc1cccc(O[C@@H](CN2CCC(c3cccc(NC(=O)C(C)C)c3)CC2)c2ccccc2)c1 [Example 338] | 844 nM
19 | Cc1ccc(NC(=O)C(C)C)cc1C1CCN(CCCC(c2ccc(F)cc2)c2ccc(F)cc2)CC1 [Example 275] | 3.1 nM
20 | CC(C)C(=O)Nc1cccc(C2CCN(CC[C@H](NC(=O)c3sccc3Cl)c3ccccc3)CC2)c1 [Example 314] | 7.6 nM
21 | CC(=O)c1ccccc1OC(CCN1CCC(c2cccc(NC(=O)C(C)C)c2)CC1)c1ccc(Br)cc1 (stereo not shown) [Example 153] | 8.1 nM
22 | CC(C)C(=O)Nc1cccc(C2CCN(CCCc3c(-c4ccccc4)[nH]c4ccc(OC(F)(F)F)cc34)CC2)c1 [Example 389] | 2.2 nM
23 | CC(C)C(=O)Nc1cccc(C2CCN(CC[C@H](NC(=O)c3cccnc3)c3ccccc3)CC2)c1 [Example 319] | 89.8 nM
24 | CC(C)C(=O)Nc1cccc(C2CCN(CCC(Oc3ccccc3)c3ccc4c(c3)CCC4)CC2)c1 (stereo not shown) [Example 156] | 8.8 nM
25 | COc1ccc(O[C@H](CCN2CCC(c3cccc(N(C)C(=O)C(C)C)c3)CC2)c2ccccc2)cc1OC [Example 353] | 41.8 nM
26 | CC(C)C(=O)Nc1cccc(C2CCN(Cc3cn(-c4ccccc4C(F)(F)F)c4ccccc34)CC2)c1 [Example 448] | 61 nM
27 | CC(C)C(=O)Nc1cccc(C2CCN(Cc3ccc(Oc4ccc(F)c(F)c4)cc3)CC2)n1 [Example 266] | 6.4 nM

same assay, conditions: cloned rat MCH1 receptor; 0.08 nM [3H] Compound A; Peakr293 cell membranes; read-out: Ki (nM) rMCH1

Row | Structure (SMILES) | Ki
28 | CCCC(=O)Nc1ccc(C2CCN(Cc3ccc4c(c3)c3ccccc3n4CC)CC2)cc1 [Example 820] | 109 nM
29 | O=C(Nc1cccc(C2CCN(CCCCCCSc3ccccc3)CC2)c1)C1CC1 [Example 582] | 58.3 nM
30 | CCOC(=O)c1[nH]c2ccccc2c1CN1CCC(c2cccc(NC(=O)C(C)C)c2)CC1 [Example 425, ETHYL 3-({4-[3-(ISOBUTYRYLAMINO)PHENYL]-1-PIPERIDINYL}METHYL)-1H-INDOLE-2-CARBOXYLATE] | 599 nM
31 | CCC(=O)Nc1cccc(C2CCN(CCCC(=O)c3ccc(C(C)(C)C)cc3)CC2)c1 [Example 534] | 155 nM
32 | CC(C)C(=O)Nc1cccc(C2CCN(CCCc3cn(-c4ccccc4)c4ccccc34)CC2)c1 [Example 407] | 16.6 nM
33 | CCC(=O)Nc1cccc(C2CCN(CCCCC(=O)c3ccccc3Cl)CC2)c1 [Example 566] | 77.8 nM
34 | CC(C)C(=O)Nc1cccc(C2CCN(Cc3cccc4c3ccn4-c3cccc(Cl)c3)CC2)c1 [Example 858] | 44.9 nM
35 | CC(C)C(=O)Nc1cccc(C2CCN(CC[C@H](NS(=O)(=O)c3ccc(F)cc3)c3ccccc3)CC2)c1 [Example 598] | 25.3 nM
36 | Cc1cccc2c(CCCN3CCC(c4cccc(NC(=O)C(C)C)c4)CC3)c(-c3ccc(Br)cc3)[nH]c12 [Example 753] | 16.6 nM
37 | CCC(=O)Nc1cccc(C2CCN(CCCCC(=O)c3ccc(C(F)(F)F)cc3)CC2)c1 [Example 550] | 60.9 nM
38 | CC(C)C(=O)Nc1cccc(C2CCN(CCCc3c(-c4ccc(Br)cc4)[nH]c4ccccc34)CC2)c1 [Example 756] | 4.2 nM
39 | Cc1cccc2c(CCCN3CCC(c4cccc(NC(=O)C(C)C)c4)CC3)c(-c3ccc([N+](=O)[O-])cc3)[nH]c12 [Example 779] | 7.6 nM
40 | CC(C)C(=O)Nc1cccc(C2CCN(CCCc3c(-c4cccc(I)c4)[nH]c4ccc(OC(F)(F)F)cc34)CC2)c1 [Example 741] | 2.8 nM
41 | CCC(=O)Nc1cccc(C2CCN(Cc3cn(-c4ccc(Cl)cc4)c4cc(Cl)ccc34)CC2)c1 [Example 475] | 12.4 nM
42 | CC(=O)c1cccc(OC(CCCCCN2CCC(c3cccc(NC(=O)C(C)C)c3)CC2)c2ccccc2)c1 (stereo not shown) [Example 903] | 12.2 nM
43 | CC(C)C(=O)Nc1cccc(C2CCN(CCCCC(O)c3cccc(F)c3)CC2)c1 (stereo not shown) [Example 815] | 127 nM
44 | CC(C)C(=O)Nc1cccc(C2CCN(CCCCC(=O)c3ccc([N+](=O)[O-])cc3)CC2)c1 [Example 661] | 33.3 nM
45 | Cc1ccc2[nH]c(-c3ccccc3Cl)c(CCCN3CCC(c4cccc(NC(=O)C(C)C)c4)CC3)c2c1 [Example 736] | 5.7 nM
46 | CC(C)C(=O)Nc1cccc(C2CCN(CCCNC(=O)N3C(=O)OC[C@H]3c3ccc(F)c(F)c3)CC2)c1 [Example 573] | 114 nM
47 | CC(C)C(=O)Nc1cccc(C2CCN(CCCCCN3C(=O)OC[C@@H]3c3ccc(F)c(F)c3)CC2)c1 [Example 574] | 87.1 nM

Row | Structure (SMILES) | Ki
48 | CC(C)C(=O)Nc1cccc(C2CCN(CCCc3c(-c4cccc(Cl)c4)[nH]c4ccc(OC(F)(F)F)cc34)CC2)c1 [Example 723] | 9.2 nM
49 | CC(C)C(=O)Nc1cccc(C2CCN(CCCCCCN)CC2)c1 [Example 646] | 236 nM
50 | COc1ccc2[nH]c(-c3ccc([N+](=O)[O-])cc3)c(CCCN3CCC(c4cccc(NC(=O)C(C)C)c4)CC3)c2c1 [Example 774] | 7.9 nM
51 | O=C(Nc1cccc(C2CCN(Cc3cn(-c4cccc(Cl)c4)c4cc(Cl)ccc34)CC2)c1)C1CC1 [Example 479] | 8.1 nM
52 | CC(C)C(=O)Nc1cccc(C2CCN(Cc3cn(-c4ccc(F)cc4)c4ccccc34)CC2)c1 [Example 450] | 7.1 nM
53 | CC(C)C(=O)Nc1cccc(C2CCN(Cc3cn(-c4ccccn4)c4ccccc34)CC2)c1 [Example 501] | 22.1 nM
54 | CC(C)C(=O)Nc1cccc(C2CCN(Cc3c[nH]c4c(-c5ccc6ccccc6c5)cccc34)CC2)c1 [Example 517] | 287 nM
55 | CC(C)C(=O)Nc1cccc(C2CCN(Cc3ccc4c(ccn4-c4ccc(C(F)(F)F)cc4)c3)CC2)c1 [Example 845] | 43.1 nM
56 | O=C(CCCCN1CCC(c2cccc(NC(=O)C3CC3)c2)CC1)c1ccc(C(F)(F)F)cc1 [Example 565] | 49.2 nM
57 | CCC(=O)Nc1cccc(C2CCN(CCCCC(=O)c3cccc(Cl)c3)CC2)c1 [Example 562] | 48.1 nM
58 | CC(C)C(=O)Nc1cccc(C2CCN(CCCCNC(=O)Nc3cc(Cl)cc(Cl)c3)CC2)c1 [Example 659] | 40.2 nM
59 | Cc1[nH]c2ccccc2c1CN1CCC(c2cccc(NC(=O)C(C)C)c2)CC1 [Example 430] | 647 nM
60 | CC(C)C(=O)Nc1cccc(C2CCN(Cc3ccc4c(ccn4-c4cccc(C(F)(F)F)c4)c3)CC2)c1 [Example 850] | 9.5 nM
61 | Cc1ccc2c(CN3CCC(c4cccc(NC(=O)C(C)C)c4)CC3)cn(-c3ccccc3)c2c1 [Example 505] | 6.5 nM
62 | CCC(=O)Nc1cccc(C2CCN(CCCCC(=O)c3cccc(F)c3)CC2)c1 [Example 555] | 50.3 nM
63 | CC(C)C(=O)Nc1cccc(C2CCN(CCCc3c(-c4cccc(Cl)c4)[nH]c4ccccc34)CC2)c1 [Example 729] | 1.7 nM
64 | CC(C)C(=O)Nc1cccc(C2CCN(CCC[S+]([O-])c3ccccc3Br)CC2)c1 (stereo not shown) [Example 591] | 138 nM
65 | CC(C)C(=O)Nc1cccc(C2CCN(Cc3cn(-c4ccccc4C(F)(F)F)c4ccccc34)CC2)c1 [Example 448] | 61 nM
66 | COc1cccc2c(CN3CCC(c4cccc(NC(=O)C(C)C)c4)CC3)cn(-c3ccccc3)c12 [Example 511] | 6 nM
67 | Cc1cccc2c(CCCN3CCC(c4cccc(NC(=O)C(C)C)c4)CC3)c(-c3ccccc3F)[nH]c12 [Example 710] | 6.9 nM
